From ChEMBL document CHEMBL1128938, “Evaluation of furofuran as a P2 ligand for symmetry-based HIV protease inhibitors” (Bioorg Med Chem Lett, 1996)

Key:
[1] = test system: MT4; assay: Cytotoxicity in MT-4 cells using cytopathicity assay.; format: functional, Homo sapiens
[2] = test system: MT4; assay: Tested for its anti-HIV activity in MT-4 cells in the presence of 50% human serum.; format: functional, cell-based
[3] = test system: MT4; assay: Tested for its anti-HIV activity in MT-4 cells.; format: functional, cell-based; conditions: Homo sapiens
[4] = target: Human immunodeficiency virus type 1 protease (Human immunodeficiency virus 1) (UniProt Q72874); assay: Tested for its inhibition against HIV protease at a concentration of 0.5 nM.
[5] = target: Human immunodeficiency virus type 1 protease (Human immunodeficiency virus 1) (UniProt Q72874); assay: Compound was tested for its inhibition against HIV protease at a concentration of 4 nM.
[6] = Cmax value after oral dose at a dose of 10 mg/kg in rats.; format: ADME, organism-based; set-up: dose 10 mg/kg, route oral; conditions: rat, in vivo
[7] = Oral bioavailability in rat (dose 10 mg/kg p.o.); format: ADME, organism-based; conditions: in vivo
[8] = Tmax value after oral dose at a dose of 10 mg/kg in rats.; format: ADME, organism-based; set-up: dose 10 mg/kg, route oral; conditions: rat, in vivo
[9] = AUC value after IV dose at a dose of 5 mg/kg in rats.; format: ADME, organism-based; set-up: dose 5 mg/kg, route intravenous; conditions: rat, plasma
[10] = AUC value after oral dose at a dose of 10 mg/kg in rats.; format: ADME, organism-based; set-up: dose 10 mg/kg, route oral; conditions: rat, plasma
[11] = Half-life value after IV dose at a dose of 5 mg/kg in rats.; format: ADME, organism-based; set-up: dose 5 mg/kg, route intravenous; conditions: rat, in vivo

Row | SMILES | inhibition [4] | inhibition [5] | Cmax [6] | bioavailability [7] | Tmax [8] | AUC [9] | AUC [10] | half-life [11] | CCIC50 [1] | EC50 [2] | EC50 [3]
1 | O=C(N[C@@H](Cc1ccccc1)C[C@H](O)[C@H](Cc1ccccc1)NC(=O)OC1COC2OCCC12)OC1COC2OCCC12 (stereo partly drawn) | 53% |  |  |  |  |  |  |  | >100 µM | 77 nM | 71 nM
2 | O=C(N[C@@H](Cc1ccccc1)C[C@H](O)[C@H](Cc1ccccc1)NC(=O)O[C@H]1COC2OCCC21)O[C@H]1COC2OCCC21 (stereo partly drawn) | 64% |  |  |  |  |  |  |  | >100 µM | 115 nM | 34 nM
3 | O=C(N[C@@H](Cc1ccccc1)C[C@H](O)[C@H](Cc1ccccc1)NC(=O)O[C@@H]1COC2OCCC21)O[C@H]1COC2OCCC21 (stereo partly drawn) | 73% |  |  |  |  |  |  |  | >100 µM | 197 nM | 107 nM
4 | O=C(N[C@@H](Cc1ccccc1)C[C@H](O)[C@H](Cc1ccccc1)NC(=O)O[C@@H]1COC2OCCC21)O[C@@H]1COC2OCCC21 (stereo partly drawn) |  | 50% |  |  |  |  |  |  | >100 µM | 4180 nM | 3680 nM
5 | O=C(N[C@@H](Cc1ccccc1)[C@@H](O)C[C@H](Cc1ccccc1)NC(=O)O[C@@H]1COC2OCCC21)O[C@H]1COC2OCCC21 (stereo partly drawn) | 39% |  |  |  |  |  |  |  | >100 µM | 1920 nM | 891 nM

Continued, in another order:

Row | inhibition [4] | inhibition [5] | Cmax [6] | bioavailability [7] | Tmax [8] | AUC [9] | AUC [10] | half-life [11] | SMILES | CCIC50 [1] | EC50 [2] | EC50 [3]
6 | 52% |  |  |  |  |  |  |  | O=C(N[C@@H](Cc1ccccc1)[C@@H](O)C[C@H](Cc1ccccc1)NC(=O)OC1COC2OCCC12)Oc1cncs1 (stereo partly drawn) | >100 µM | 774 nM | 428 nM
7 | 78% |  |  |  |  |  |  |  | CC(C)c1nc(CN(C)C(=O)N[C@H](C(=O)N[C@@H](Cc2ccccc2)C[C@H](O)[C@H](Cc2ccccc2)NC(=O)OCc2cncs2)C(C)C)cs1 [RITONAVIR] | 56 µM | 810 nM | 70 nM
8 | 45% |  |  |  |  |  |  |  | CC(C)(C)OC(=O)N[C@@H](Cc1ccccc1)C[C@H](O)[C@H](Cc1ccccc1)NC(=O)O[C@@H]1COC2OCCC21 (stereo partly drawn) | >100 µM | 4730 nM | 1040 nM
9 | 49% |  |  |  |  |  |  |  | CC(C)(C)OC(=O)N[C@@H](Cc1ccccc1)C[C@H](O)[C@H](Cc1ccccc1)NC(=O)OC1COC2OCCC12 (stereo partly drawn) | 56 µM | 200 nM | 200 nM
10 | 43% |  |  |  |  |  |  |  | O=C(N[C@@H](Cc1ccccc1)C[C@H](O)[C@H](Cc1ccccc1)NC(=O)OC1COC2OCCC12)Oc1cncs1 (stereo partly drawn) | >100 µM | 1200 nM | 502 nM
11 | 53% |  | 1120 ng/mL | 41.1% | 30 min | 2300 ng·h/mL | 1890 ng·h/mL | 41.4 min | O=C(N[C@@H](Cc1ccccc1)C[C@H](O)[C@H](Cc1ccccc1)NC(=O)O[C@H]1COC2OCCC21)Oc1cncs1 (stereo partly drawn) | >100 µM | 290 nM | 140 nM
12 | 63% |  |  |  |  |  |  |  | CC(C)(C)OC(=O)N[C@@H](Cc1ccccc1)C[C@H](O)[C@H](Cc1ccccc1)NC(=O)O[C@H]1COC2OCCC21 (stereo partly drawn) | 69 µM |  | 180 nM
